# In patent US20250376461A1, “INDAZOLE DERIVATIVES FOR TREATING TRPM3-MEDIATED DISORDERS” (Katholieke Universiteit Leuven, priority 2022, published 2025):
# Molecular target: T1, mouse TRPM3α2 (mTRPM3) ion channel (Mus musculus, UniProt J9SQF3)
# T1 construct: expressed in transfected cells; host or cells: flip-in HEK293
# Assay: TRPM3 ion channel driven Ca2+ uptake, Fluo-4 AM assay, mTRPM3alpha2 overexpressing flip-in HEK293 cells stimulated with pregnenolone sulfate (50 μM)
# Format: cell-based
# Conditions: mTRPM3 overexpressing HEK293 cells stimulated with pregnenolone sulfate (50 μM), activity ranges A, B, C
# Description: Monitoring the TRPM3 Ion Channel Driven Ca2+ Uptake.
# In order to monitor the inhibition of the mouse TRPM3α2 (mTRPM3) ion channel by the compounds of the invention, a cellular system making use of an mTRPM3alpha2 or hTRPM3 overexpressing cell line (flip-in HEK293) was used. The TRPM3 channel was stimulated/opened with Pregnenolone sulfate (PS) (50 μM) which results in Ca^2+ influx.
# For mTRPM3, the intracellular Ca^2+ was measured with a Calcium responsive dye, Fluor-4 AM ester (Invitrogen). Cells were cultured until a confluence of 80-90%, washed with Versene (Invitrogen) and detached from the surface by a short incubation with 0.05% Trypsin (Invitrogen). The trypsination process was stopped by the addition of complete cell culture medium (DMEM, glutamax, 10% FCS, NEAA, Pen-Strep). Cells were collected and resuspended in Krebs buffer without Calcium at RT.
# Prior the cell seeding (±2000 cells/well into a black, 384 well plate (Greiner)) the diluted compound was added in the assay plate, together with the PS dissolved in Krebs buffer containing Calcium. […] Directly after cell addition the plates were read on an Envision fluorescence reader (Perkin Elmer) by an Excitation of 485 nm and emission at 535 nm.
# Channel inhibition was calculated compared to a non-PS stimulated control versus a condition stimulated with PS (50 μM) with vehicle. The ability of the compounds of the invention to inhibit this activity was determined as: Percentage inhibition=[1−((RFU determined for sample with test compound present−RFU determined for sample with positive control inhibitor) divided by (RFU determined in the presence of vehicle−RFU determined for sample with positive control inhibitor))]*100.
# The activities of the Example compounds cpd 001-262 tested are depicted in the table below. All tested compounds show an activity in the Fluo-4 AM assay. The activity ranges A, B and C refer to IC50 values in the Fluo-4 AM assay as follows: “A”: IC50<1 μM; “B”: 1 μM≤IC50≤20 μM and “C”: IC50>20 μM.
# T1 sequence (J9SQF3 1-1709 isoform J9SQF3-12): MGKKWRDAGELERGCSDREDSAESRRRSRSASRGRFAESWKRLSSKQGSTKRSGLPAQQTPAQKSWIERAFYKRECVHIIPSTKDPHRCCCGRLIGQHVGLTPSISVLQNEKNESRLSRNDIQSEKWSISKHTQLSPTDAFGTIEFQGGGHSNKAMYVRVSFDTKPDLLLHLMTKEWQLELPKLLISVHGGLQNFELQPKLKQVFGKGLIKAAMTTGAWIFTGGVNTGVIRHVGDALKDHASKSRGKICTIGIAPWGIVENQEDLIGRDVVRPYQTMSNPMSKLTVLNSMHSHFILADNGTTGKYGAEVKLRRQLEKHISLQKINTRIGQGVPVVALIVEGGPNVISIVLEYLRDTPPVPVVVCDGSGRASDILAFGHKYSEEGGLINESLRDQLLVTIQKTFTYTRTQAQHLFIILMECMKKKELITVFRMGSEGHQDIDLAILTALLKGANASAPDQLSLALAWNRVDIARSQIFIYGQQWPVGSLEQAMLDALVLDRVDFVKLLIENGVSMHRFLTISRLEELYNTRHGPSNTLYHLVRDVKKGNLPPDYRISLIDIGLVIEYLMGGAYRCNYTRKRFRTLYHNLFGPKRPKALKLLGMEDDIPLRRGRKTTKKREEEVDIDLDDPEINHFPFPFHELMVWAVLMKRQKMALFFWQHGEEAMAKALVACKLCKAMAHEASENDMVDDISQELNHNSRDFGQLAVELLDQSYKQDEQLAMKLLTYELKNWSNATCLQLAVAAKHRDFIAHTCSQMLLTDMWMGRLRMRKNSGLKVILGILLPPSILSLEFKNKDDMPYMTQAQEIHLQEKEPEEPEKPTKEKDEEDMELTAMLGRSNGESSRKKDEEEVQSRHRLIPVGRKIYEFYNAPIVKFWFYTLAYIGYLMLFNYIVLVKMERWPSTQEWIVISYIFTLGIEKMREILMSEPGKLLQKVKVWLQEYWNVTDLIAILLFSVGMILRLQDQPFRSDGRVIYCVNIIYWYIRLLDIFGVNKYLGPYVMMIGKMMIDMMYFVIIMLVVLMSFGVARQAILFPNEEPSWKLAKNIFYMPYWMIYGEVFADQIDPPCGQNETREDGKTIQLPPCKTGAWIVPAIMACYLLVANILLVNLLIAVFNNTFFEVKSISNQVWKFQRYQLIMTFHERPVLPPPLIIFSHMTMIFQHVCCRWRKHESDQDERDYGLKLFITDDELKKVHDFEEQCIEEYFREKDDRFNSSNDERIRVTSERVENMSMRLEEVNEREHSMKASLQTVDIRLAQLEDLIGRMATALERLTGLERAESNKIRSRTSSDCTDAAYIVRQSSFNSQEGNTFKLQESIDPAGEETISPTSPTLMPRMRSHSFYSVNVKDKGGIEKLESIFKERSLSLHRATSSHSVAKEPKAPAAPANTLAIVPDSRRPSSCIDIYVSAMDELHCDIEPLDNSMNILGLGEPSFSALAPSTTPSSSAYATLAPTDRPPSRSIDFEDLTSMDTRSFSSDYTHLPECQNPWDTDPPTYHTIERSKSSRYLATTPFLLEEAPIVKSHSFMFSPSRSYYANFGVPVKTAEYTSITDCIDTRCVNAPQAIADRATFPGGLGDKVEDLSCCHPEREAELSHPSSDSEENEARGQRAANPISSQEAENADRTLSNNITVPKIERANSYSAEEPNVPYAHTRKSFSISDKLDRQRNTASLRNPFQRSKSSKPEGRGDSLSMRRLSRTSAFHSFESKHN
row,Compound,IC50
1,"CN(C)C(=O)C(C)(CO)NC(=O)c1c2cc(OCc3cccnc3C(F)(F)F)ccc2nn1C (single isomer, unassigned) [Cpd 193 - En2, 3-hydroxy-N,N,2-trimethyl-2-[(2-methyl-5-{[2-(trifluoromethyl)pyridin-3-yl]methoxy}-2H-indazol-3-yl)formamido]propanamide]",> 20 µM
2,"Cn1nc2ccc(OCc3ccccc3F)cc2c1C(=O)NC(C)(CO)C(N)=O (single isomer, unassigned) [Cpd 194 - En1]",< 1 µM
3,"Cn1nc2ccc(OCc3ccccc3F)cc2c1C(=O)NC(C)(CO)C(N)=O (single isomer, unassigned) [Cpd 194 - En2]",< 1 µM
4,"Cn1nc2ccc(OCc3cccnc3C(F)(F)F)cc2c1C(=O)NC(C)(CO)CC(F)F (single isomer, unassigned) [Cpd 202 - En1]",< 1 µM
5,"Cn1nc2ccc(OCc3cccnc3C(F)(F)F)cc2c1C(=O)NC(C)(CO)CC(F)F (single isomer, unassigned) [Cpd 202 - En2]",< 1 µM
6,"Cn1nc2ccc(OCc3ccccc3F)cc2c1C(=O)NC(C)(CO)CC(F)F (single isomer, unassigned) [Cpd 203 - En1]",< 1 µM
7,"Cn1nc2ccc(OCc3ccccc3F)cc2c1C(=O)NC(C)(CO)CC(F)F (single isomer, unassigned) [Cpd 203 - En2]",< 1 µM
8,"Cn1nc2ccc(OCc3ccccn3)cc2c1C(=O)NC(CO)c1ccc(F)cc1 (single isomer, unassigned) [Cpd 220 - En1]",> 20 µM
9,"Cn1nc2ccc(OCc3ccccn3)cc2c1C(=O)NC(CO)c1ccc(F)cc1 (single isomer, unassigned) [Cpd 220 - En2]",> 20 µM
10,"Cn1nc2ccc(OCc3ccccn3)cc2c1C(=O)NC(CO)c1ccccn1 (single isomer, unassigned) [Cpd 221 - En1]",1 to 20 µM
11,"Cn1nc2ccc(OCc3ccccn3)cc2c1C(=O)NC(CO)c1ccccn1 (single isomer, unassigned) [Cpd 221 - En2]",1 to 20 µM
12,"Cn1nc2ccc(OCc3ccccn3)cc2c1C(=O)NC(CCO)c1ccc(F)cc1 (single isomer, unassigned) [Cpd 223 - En1]",> 20 µM
13,"Cn1nc2ccc(OCc3ccccn3)cc2c1C(=O)NC(CCO)c1ccc(F)cc1 (single isomer, unassigned) [Cpd 223 - En2]",> 20 µM
14,"Cn1nc2ccc(OCc3ccccn3)cc2c1C(=O)NC(CO)CC(F)(F)F (single isomer, unassigned) [Cpd 226-En1]",< 1 µM
15,"Cn1nc2ccc(OCc3ccccn3)cc2c1C(=O)NC(CO)CC(F)(F)F (single isomer, unassigned) [Cpd 226-En2]",> 20 µM
16,"Cn1nc2ccc(OCc3ccccn3)cc2c1C(=O)NC(CO)C(C(F)(F)F)C(F)(F)F (single isomer, unassigned) [Cpd 227 - En1]",< 1 µM
17,"Cn1nc2ccc(OCc3ccccn3)cc2c1C(=O)NC(CO)C(C(F)(F)F)C(F)(F)F (single isomer, unassigned) [Cpd 227 - En2]",> 20 µM
18,"Cn1nc2ccc(OCc3ccccn3)cc2c1C(=O)NC(CO)CC(F)F (single isomer, unassigned) [Cpd 228 - En1]",< 1 µM
19,"Cn1nc2ccc(OCc3ccccn3)cc2c1C(=O)NC(CO)CC(F)F (single isomer, unassigned) [Cpd 228 - En2]",> 20 µM
20,"CN(C)CC(C)(CC(F)F)NC(=O)c1c2cc(OCc3ccccn3)ccc2nn1C (single isomer, unassigned) [Cpd 229 - En1, N-[1-(dimethylamino)-4,4-difluoro-2-methylbutan-2-yl]-2-methyl-5-[(pyridin-2-yl)methoxy]-2H-indazole-3-carboxamide]",1 to 20 µM
21,"CN(C)CC(C)(CC(F)F)NC(=O)c1c2cc(OCc3ccccn3)ccc2nn1C (single isomer, unassigned) [Cpd 229 - En2, N-[1-(dimethylamino)-4,4-difluoro-2-methylbutan-2-yl]-2-methyl-5-[(pyridin-2-yl)methoxy]-2H-indazole-3-carboxamide]",> 20 µM
22,"COCC(C)(CC(F)F)NC(=O)c1c2cc(OCc3ccccn3)ccc2nn1C (single isomer, unassigned) [Cpd 230 - En1]",> 20 µM
23,"COCC(C)(CC(F)F)NC(=O)c1c2cc(OCc3ccccn3)ccc2nn1C (single isomer, unassigned) [Cpd 230 - En2]",1 to 20 µM

# The next lines start with the values.
row,IC50,Compound
1,> 20 µM,"Cc1ncc(COc2ccc3nn(C(C)C)c(C(=O)NC(C)(CO)C(N)=O)c3c2)s1 (single isomer, unassigned) [Cpd 195 - En1]"
2,< 1 µM,"Cc1ncc(COc2ccc3nn(C(C)C)c(C(=O)NC(C)(CO)C(N)=O)c3c2)s1 (single isomer, unassigned) [Cpd 195 - En2]"
3,< 1 µM,"Cn1nc2ccc(OCc3ccccn3)cc2c1C(=O)NC(C)(CO)CC(F)F (single isomer, unassigned) [Cpd 201 - En1, N-(4,4-difluoro-1-hydroxy-2-methylbutan-2-yl)-2-methyl-5-[(pyridin-2-yl)methoxy]-2H-indazole-3-carboxamide]"
4,< 1 µM,"Cn1nc2ccc(OCc3ccccn3)cc2c1C(=O)NC(C)(CO)CC(F)F (single isomer, unassigned) [Cpd 201 - En2, N-(4,4-difluoro-1-hydroxy-2-methylbutan-2-yl)-2-methyl-5-[(pyridin-2-yl)methoxy]-2H-indazole-3-carboxamide]"
5,1 to 20 µM,"Cc1ncsc1COc1ccc2nn(C)c(C(=O)NC3CNCCC3(F)F)c2c1 (single isomer, unassigned) [Cpd 211 - En1, N-(4,4-difluoropiperidin-3-yl)-2-methyl-5-[(4-methyl-1,3-thiazol-5-yl)methoxy]-2H-indazole-3-carboxamide]"
6,< 1 µM,"Cc1ncsc1COc1ccc2nn(C)c(C(=O)NC3CNCCC3(F)F)c2c1 (single isomer, unassigned) [Cpd 211 - En2, N-(4,4-difluoropiperidin-3-yl)-2-methyl-5-[(4-methyl-1,3-thiazol-5-yl)methoxy]-2H-indazole-3-carboxamide]"
7,1 to 20 µM,"Cn1nc2ccc(OCc3ccccn3)cc2c1C(=O)NC1CNCCC1(F)F (single isomer, unassigned) [Cpd 212 - En1, N-(4,4-difluoropiperidin-3-yl)-2-methyl-5-[(pyridin-2-yl)methoxy]-2H-indazole-3-carboxamide]"
8,> 20 µM,"Cn1nc2ccc(OCc3ccccn3)cc2c1C(=O)NC1CNCCC1(F)F (single isomer, unassigned) [Cpd 212 - En2, N-(4,4-difluoropiperidin-3-yl)-2-methyl-5-[(pyridin-2-yl)methoxy]-2H-indazole-3-carboxamide]"
9,1 to 20 µM,"Cc1ncsc1COc1ccc2nn(C)c(C(=O)NC3CNCC(F)(F)C3)c2c1 (single isomer, unassigned) [Cpd 213 - En1]"
10,> 20 µM,"Cc1ncsc1COc1ccc2nn(C)c(C(=O)NC3CNCC(F)(F)C3)c2c1 (single isomer, unassigned) [Cpd 213 - En2]"
11,> 20 µM,"Cn1nc2ccc(OCc3ccccn3)cc2c1C(=O)NC1CNCC(F)(F)C1 (single isomer, unassigned) [Cpd 214 - En1]"
12,1 to 20 µM,"Cn1nc2ccc(OCc3ccccn3)cc2c1C(=O)NC1CNCC(F)(F)C1 (single isomer, unassigned) [Cpd 214 - En2]"
13,> 20 µM,"Cc1ncsc1COc1ccc2nn(C)c(C(=O)NC3CCNC3)c2c1 (single isomer, unassigned) [Cpd 215 - En1]"
14,1 to 20 µM,"Cc1ncsc1COc1ccc2nn(C)c(C(=O)NC3CCNC3)c2c1 (single isomer, unassigned) [Cpd 215 - En2]"
15,> 20 µM,"Cn1nc2ccc(OCc3ccccn3)cc2c1C(=O)NC1CCNC1 (single isomer, unassigned) [Cpd 216 - En1]"
16,1 to 20 µM,"Cn1nc2ccc(OCc3ccccn3)cc2c1C(=O)NC1CCNC1 (single isomer, unassigned) [Cpd 216 - En2]"
17,1 to 20 µM,"CC(=O)C(C)(CO)NC(=O)c1c2cc(OCc3ccccn3)ccc2nn1C (single isomer, unassigned) [Cpd 232 - En1]"
18,< 1 µM,"CC(=O)C(C)(CO)NC(=O)c1c2cc(OCc3ccccn3)ccc2nn1C (single isomer, unassigned) [Cpd 232 - En2]"
19,> 20 µM,"Cn1nc2ccc(OCc3ccccn3)cc2c1C(=O)NC1(CO)CC1(F)F (single isomer, unassigned) [Cpd 235 - En1, N-[2,2-difluoro-1-(hydroxymethyl)cyclopropyl]-2-methyl-5-[(pyridin-2-yl)methoxy]-2H-indazole-3-carboxamide]"
20,1 to 20 µM,"Cn1nc2ccc(OCc3ccccn3)cc2c1C(=O)NC1(CO)CC1(F)F (single isomer, unassigned) [Cpd 235 - En2, N-[2,2-difluoro-1-(hydroxymethyl)cyclopropyl]-2-methyl-5-[(pyridin-2-yl)methoxy]-2H-indazole-3-carboxamide]"
